Results published in patent US20210045381A1, “FORMULATIONS” (priority 2018, published 2021).

Experiment: Release of pesticide from 3-D printed binary solid objects in a stirred dissolution basket
Assay type: physicochemical
Conditions: for Percentage Release, Water - after 720 min.: from binary solid object T7 (T3 + T4, no surfactant); for Percentage Release, Water - after 720 min. / Percentage Release, Water - after 30 min.: into water; for Percentage Release, S1 - after 30 min. / Percentage Release, S2 - after 30 min.: from binary solid object T7; for Percentage Release, S1 - after 30 min.: into S1 = water with 0.5% w/w Agnique FOH 90C-20; for Percentage Release, S2 - after 30 min.: into S2 = water with 0.5% w/w Agnique FOH 90C-20 and 1% Tween 80
Protocol: This Example illustrates a binary (two-sectioned) extruded solid object displaying both slow and fast release. The release of pesticide from the 3-D printed binary solid object T7 of Example 2 (containing T3 and T4) was measured. In each experiment three T7 solid objects were added to a dissolution basket which was stirred at 30 rpm. Release was measured into water; into water containing a commercially available surfactant (S1); and into water with two different types of commercially available surfactant (S2). […] Binary solid object T7 released 64% of the pesticide in 720 minutes. The release of the fungicide azoxystrobin in the same time period was only 27%; this was slow release. Release rates into the two surfactant containing media were faster for both pesticides. S1 contained water with 0.5% w/w of Agnique®FOH 90C-20 whereas S2 contained water with 0.5% w/w Agnique®FOH 90C-20 and 1% Tween® 80. Tween® 80 is a non-ionic surfactant: polyoxyethylene (20) sorbitan monooleate.
This Example illustrates the effect of a surfactant of the release profile of a binary (two-sectioned) extruded solid object. Similarly to Example 3, the releases of pesticides from the 3-D printed binary solid object T8 of Example 2 (containing T5 and T6) were measured; three solid objects T8 were added to a dissolution basket which was stirred at 30 rpm. […] Furthermore, compared to solid object T7 releasing fomesafen into water which already contains a high concentration of the same surfactant (S1 of Example 2), the release from T8 (the formulation with built-in surfactant) was considerably faster (78% versus 39.3% [S1]). […] Similar to the case for fomesafen we also see that the T8 azoxystrobin section (with built-in surfactant) released considerably more of the azoxystrobin than the T7 (surfactant free) solid object releasing into a surfactant solution (37% versus 28.9%).

[1] = from binary solid object T7 (sections T3 + T4, no surfactant), three objects, basket stirred at 30 rpm, 30 min
[2] = from binary solid object T7 into water, 720 min
[3] = from binary solid object T8 (fomesafen section T5, azoxystrobin section T6, both with built-in alkyl ethoxylate surfactant), 30 rpm, 30 min

SMILES	Percentage Release, Water - after 720 min. (30 rpm, 720 min)	Percentage Release, Water - after 30 min. [1]	Percentage Release, S1 - after 30 min. (30 rpm, 30 min)	Percentage Release, S2 - after 30 min. (30 rpm, 30 min)	Release profile (in words) [2]	Percentage Release, Water - after 30 min. [3]	Increase of release rate from T8 compared to T7 (factor, water, 30 min, T8 (with surfactant) versus T7 (no surfactant))	Release profile (in words) (from binary solid object T8 into water, 30 min)
CO/C=C(/C(=O)OC)c1ccccc1Oc1cc(Oc2ccccc2C#N)ncn1 [Azoxystrobin]	27%	15.6%	28.9%	48.3%	slow release	37%	–	–
CS(=O)(=O)NC(=O)c1cc(Oc2ccc(C(F)(F)F)cc2Cl)ccc1[N+](=O)[O-] [Fomesafen]	64%	23.6%	39.3%	45.9%	fast release	78%	three	fast release
